Reference: publication doi:10.1101/2023.10.20.563248v1 (biorxiv, 2023)

Key:
Conditions in all cases: 1 µM; inhibitor
ZAK = ZAK (Homo sapiens, UniProt Q9NYL2)
PAK7 = PAK7 (Homo sapiens, UniProt Q9P286)
PAK3 = PAK3 (Homo sapiens, UniProt O75914)
MAP3K10 = MAP3K10 (Homo sapiens, UniProt Q02779)
NLK = NLK (Homo sapiens, UniProt Q9UBE8)
PKCg = PKCg (Homo sapiens, UniProt P05129)
PYK2 = PYK2 (Homo sapiens, UniProt Q14289)
SNARK = SNARK (Homo sapiens, UniProt Q9H093)
CDK6/CycD2 = CDK6/CycD2 (Homo sapiens, UniProt Q00534)
ERK1 = ERK1 (Homo sapiens, UniProt P27361)
INSR = INSR (Homo sapiens, UniProt P06213)
Sequence of INSR (P06213 whole entry): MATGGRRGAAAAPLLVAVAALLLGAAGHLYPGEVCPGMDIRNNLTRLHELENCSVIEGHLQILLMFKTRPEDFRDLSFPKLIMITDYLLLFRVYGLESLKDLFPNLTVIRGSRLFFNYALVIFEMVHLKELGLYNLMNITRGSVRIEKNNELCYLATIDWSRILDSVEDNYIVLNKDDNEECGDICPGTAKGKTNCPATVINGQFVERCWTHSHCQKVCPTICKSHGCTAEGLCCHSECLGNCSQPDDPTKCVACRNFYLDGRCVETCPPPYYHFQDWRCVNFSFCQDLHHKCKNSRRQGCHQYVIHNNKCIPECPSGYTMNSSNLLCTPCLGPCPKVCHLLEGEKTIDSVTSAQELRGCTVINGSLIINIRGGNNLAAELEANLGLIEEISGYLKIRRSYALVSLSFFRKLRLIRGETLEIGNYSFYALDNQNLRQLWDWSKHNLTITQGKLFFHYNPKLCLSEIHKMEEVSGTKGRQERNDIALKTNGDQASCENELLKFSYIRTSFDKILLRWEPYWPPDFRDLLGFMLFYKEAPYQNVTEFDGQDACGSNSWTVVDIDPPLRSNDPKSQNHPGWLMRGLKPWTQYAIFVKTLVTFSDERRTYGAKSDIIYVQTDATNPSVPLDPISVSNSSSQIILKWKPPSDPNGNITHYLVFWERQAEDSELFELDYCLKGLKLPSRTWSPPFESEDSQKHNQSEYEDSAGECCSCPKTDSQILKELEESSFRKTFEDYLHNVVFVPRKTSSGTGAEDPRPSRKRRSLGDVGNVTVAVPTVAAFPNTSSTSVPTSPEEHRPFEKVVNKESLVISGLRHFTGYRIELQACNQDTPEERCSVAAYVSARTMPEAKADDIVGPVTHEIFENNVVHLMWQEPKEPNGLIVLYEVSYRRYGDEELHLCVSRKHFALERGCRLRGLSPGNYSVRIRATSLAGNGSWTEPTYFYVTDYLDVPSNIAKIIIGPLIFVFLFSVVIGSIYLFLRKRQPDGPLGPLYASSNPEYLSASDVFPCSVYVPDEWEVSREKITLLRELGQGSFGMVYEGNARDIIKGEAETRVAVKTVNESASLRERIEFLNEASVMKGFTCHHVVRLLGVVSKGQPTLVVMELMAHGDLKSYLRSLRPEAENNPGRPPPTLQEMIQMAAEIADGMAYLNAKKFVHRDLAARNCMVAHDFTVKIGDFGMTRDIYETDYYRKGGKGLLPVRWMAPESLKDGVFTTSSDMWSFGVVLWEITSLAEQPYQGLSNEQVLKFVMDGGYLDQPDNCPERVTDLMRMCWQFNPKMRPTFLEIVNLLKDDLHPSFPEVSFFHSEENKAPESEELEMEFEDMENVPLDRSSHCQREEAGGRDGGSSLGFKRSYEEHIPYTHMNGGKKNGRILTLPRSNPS

CDK2/CycA2 = CDK2/CycA2 (Homo sapiens, UniProt P24941)
CDK4/CycD3 = CDK4/CycD3 (Homo sapiens, UniProt P11802)
MKK7 = MKK7 (Homo sapiens, UniProt O14733)
ACVRL1 = ACVRL1 (Homo sapiens, UniProt P37023)
PRKD2 = PRKD2 (Homo sapiens, UniProt Q9BZL6)
CLK2 = CLK2 (Homo sapiens, UniProt P49760)
CDK17 = CDK17 (Homo sapiens, UniProt Q00537)
Sequence of CDK17 (Q00537 whole entry): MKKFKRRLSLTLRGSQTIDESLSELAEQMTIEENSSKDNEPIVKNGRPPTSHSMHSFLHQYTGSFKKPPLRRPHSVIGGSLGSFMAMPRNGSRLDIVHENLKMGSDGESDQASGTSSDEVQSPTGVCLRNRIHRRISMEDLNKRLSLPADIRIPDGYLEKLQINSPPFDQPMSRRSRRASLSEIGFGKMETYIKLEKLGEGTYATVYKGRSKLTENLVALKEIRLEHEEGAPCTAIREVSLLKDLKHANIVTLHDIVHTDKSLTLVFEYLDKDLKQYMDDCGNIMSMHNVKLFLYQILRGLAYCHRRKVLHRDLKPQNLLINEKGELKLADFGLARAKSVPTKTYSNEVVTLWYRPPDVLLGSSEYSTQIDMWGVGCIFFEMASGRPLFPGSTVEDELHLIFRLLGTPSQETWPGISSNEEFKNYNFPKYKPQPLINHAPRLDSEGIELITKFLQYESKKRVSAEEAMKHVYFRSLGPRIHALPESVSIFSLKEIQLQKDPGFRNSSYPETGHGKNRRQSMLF

AKT2 = AKT2 (Homo sapiens, UniProt P31751)
IRAK1 = IRAK1 (Homo sapiens, UniProt P51617)
EPHA5 = EPHA5 (Homo sapiens, UniProt P54756)
MAP4K5 = MAP4K5 (Homo sapiens, UniProt Q9Y4K4)
Sequence of MAP4K5 (Q9Y4K4 whole entry): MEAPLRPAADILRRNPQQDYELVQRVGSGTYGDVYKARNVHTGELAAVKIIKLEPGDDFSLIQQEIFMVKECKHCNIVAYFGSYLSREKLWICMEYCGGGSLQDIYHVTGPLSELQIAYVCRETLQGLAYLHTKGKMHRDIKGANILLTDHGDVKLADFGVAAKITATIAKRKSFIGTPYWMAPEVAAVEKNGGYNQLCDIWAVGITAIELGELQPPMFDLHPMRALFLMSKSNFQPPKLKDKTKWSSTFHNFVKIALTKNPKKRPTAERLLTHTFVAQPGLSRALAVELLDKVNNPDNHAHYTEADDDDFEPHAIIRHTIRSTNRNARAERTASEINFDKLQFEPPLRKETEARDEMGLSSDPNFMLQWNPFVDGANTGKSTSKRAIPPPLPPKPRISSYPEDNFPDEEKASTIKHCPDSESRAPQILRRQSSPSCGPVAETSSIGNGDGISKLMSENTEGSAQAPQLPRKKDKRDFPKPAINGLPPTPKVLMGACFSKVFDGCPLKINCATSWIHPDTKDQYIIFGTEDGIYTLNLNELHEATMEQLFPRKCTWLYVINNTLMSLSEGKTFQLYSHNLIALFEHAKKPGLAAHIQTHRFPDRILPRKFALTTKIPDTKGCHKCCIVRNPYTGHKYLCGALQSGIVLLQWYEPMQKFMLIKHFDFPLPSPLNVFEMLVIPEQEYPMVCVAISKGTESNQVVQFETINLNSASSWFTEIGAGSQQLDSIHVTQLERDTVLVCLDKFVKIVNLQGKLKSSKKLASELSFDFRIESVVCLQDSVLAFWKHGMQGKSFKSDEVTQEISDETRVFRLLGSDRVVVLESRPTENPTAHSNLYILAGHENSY

CDK6/CycD3 = CDK6/CycD3 (Homo sapiens, UniProt Q00534)
YES = YES (Homo sapiens, UniProt P07947)
DDR2 = DDR2 (Homo sapiens, UniProt Q16832)
Sequence of DDR2 (Q16832 whole entry): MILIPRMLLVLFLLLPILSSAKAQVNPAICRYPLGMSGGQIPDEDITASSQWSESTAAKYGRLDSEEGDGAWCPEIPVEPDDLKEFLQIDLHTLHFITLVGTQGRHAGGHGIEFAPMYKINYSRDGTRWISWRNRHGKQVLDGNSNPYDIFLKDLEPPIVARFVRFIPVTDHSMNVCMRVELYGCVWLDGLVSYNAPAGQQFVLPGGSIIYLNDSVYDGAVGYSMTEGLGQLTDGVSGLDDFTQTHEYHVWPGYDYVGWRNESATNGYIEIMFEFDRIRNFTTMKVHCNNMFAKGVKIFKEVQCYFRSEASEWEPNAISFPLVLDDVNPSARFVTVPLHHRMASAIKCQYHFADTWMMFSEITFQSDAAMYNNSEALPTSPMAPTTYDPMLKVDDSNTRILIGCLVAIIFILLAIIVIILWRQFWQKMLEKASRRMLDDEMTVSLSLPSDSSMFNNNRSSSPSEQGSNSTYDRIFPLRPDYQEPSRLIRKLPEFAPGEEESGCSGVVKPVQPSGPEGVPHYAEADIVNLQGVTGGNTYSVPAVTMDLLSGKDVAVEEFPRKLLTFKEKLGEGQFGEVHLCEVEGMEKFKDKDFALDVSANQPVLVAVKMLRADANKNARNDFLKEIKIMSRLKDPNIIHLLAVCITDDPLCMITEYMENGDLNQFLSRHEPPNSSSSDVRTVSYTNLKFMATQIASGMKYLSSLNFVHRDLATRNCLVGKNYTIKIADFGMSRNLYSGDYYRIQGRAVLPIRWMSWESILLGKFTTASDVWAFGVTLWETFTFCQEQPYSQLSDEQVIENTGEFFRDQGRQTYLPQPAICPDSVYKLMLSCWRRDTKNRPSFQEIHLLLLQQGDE

TYRO3 = TYRO3 (Homo sapiens, UniProt Q06418)
ROS = ROS (Homo sapiens, UniProt P08922)
GSK3B = GSK3B (Homo sapiens, UniProt P49841)
Sequence of GSK3B (P49841 whole entry): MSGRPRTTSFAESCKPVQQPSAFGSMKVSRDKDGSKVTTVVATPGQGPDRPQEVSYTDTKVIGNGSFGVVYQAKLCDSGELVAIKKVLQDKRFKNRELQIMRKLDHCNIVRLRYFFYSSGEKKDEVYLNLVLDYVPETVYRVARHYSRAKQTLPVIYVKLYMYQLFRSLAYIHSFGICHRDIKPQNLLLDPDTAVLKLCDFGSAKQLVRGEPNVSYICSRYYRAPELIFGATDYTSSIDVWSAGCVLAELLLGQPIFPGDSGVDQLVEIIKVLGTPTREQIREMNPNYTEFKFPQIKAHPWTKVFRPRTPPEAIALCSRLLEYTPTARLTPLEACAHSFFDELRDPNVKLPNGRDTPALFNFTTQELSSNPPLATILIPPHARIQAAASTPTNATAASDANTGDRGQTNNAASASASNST

SIK1 = SIK1 (Homo sapiens, UniProt P57059)
ABL2 = ABL2 (Homo sapiens, UniProt P42684)
FGFR2 = FGFR2 (Homo sapiens, UniProt P21802)
Sequence of FGFR2 (P21802 whole entry): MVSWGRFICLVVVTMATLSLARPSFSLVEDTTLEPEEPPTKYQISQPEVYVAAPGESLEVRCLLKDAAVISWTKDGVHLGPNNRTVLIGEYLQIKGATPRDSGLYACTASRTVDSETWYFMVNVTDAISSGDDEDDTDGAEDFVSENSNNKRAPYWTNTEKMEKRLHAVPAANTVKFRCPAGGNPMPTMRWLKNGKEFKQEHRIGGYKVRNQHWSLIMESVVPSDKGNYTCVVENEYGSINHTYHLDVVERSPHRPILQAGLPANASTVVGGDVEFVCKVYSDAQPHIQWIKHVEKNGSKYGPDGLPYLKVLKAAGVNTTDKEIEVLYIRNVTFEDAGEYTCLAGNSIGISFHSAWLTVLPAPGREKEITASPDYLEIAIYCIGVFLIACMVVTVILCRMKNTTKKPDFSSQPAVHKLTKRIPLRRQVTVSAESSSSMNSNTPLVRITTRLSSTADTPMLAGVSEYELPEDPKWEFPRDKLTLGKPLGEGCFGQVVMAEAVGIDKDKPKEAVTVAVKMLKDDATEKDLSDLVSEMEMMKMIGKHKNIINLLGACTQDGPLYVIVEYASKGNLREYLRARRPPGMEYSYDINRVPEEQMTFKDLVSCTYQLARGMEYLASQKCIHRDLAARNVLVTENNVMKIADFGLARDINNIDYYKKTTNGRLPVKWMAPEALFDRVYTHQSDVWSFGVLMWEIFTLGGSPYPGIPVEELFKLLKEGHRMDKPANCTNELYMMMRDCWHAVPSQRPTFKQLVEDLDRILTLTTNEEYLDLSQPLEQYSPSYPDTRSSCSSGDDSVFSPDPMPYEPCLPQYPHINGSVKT

- 21c Remaining activity, percent of control [%] (ZAK): 82.9%
- 21c Remaining activity, percent of control [%] (PAK7): 87.1%
- 21c Remaining activity, percent of control [%] (PAK3): 103.3%
- 21c Remaining activity, percent of control [%] (MAP3K10): 94.4%
- 21c Remaining activity, percent of control [%] (NLK): 111.9%
- 21c Remaining activity, percent of control [%] (PKCg): 79.4%
- 21c Remaining activity, percent of control [%] (PYK2): 80.8%
- 21c Remaining activity, percent of control [%] (SNARK): 95.6%
- 21c Remaining activity, percent of control [%] (CDK6/CycD2): 85.8%
- 21c Remaining activity, percent of control [%] (ERK1): 85.8%
- 21c Remaining activity, percent of control [%] (INSR): 98.0%
- 21c Remaining activity, percent of control [%] (CDK2/CycA2): 106.1%
- 21c Remaining activity, percent of control [%] (CDK4/CycD3): 111.1%
- 21c Remaining activity, percent of control [%] (MKK7): 100.3%
- 21c Remaining activity, percent of control [%] (ACVRL1): 91.0%
- 21c Remaining activity, percent of control [%] (PRKD2): 82.0%
- 21c Remaining activity, percent of control [%] (CLK2): 64.6%
- 21c Remaining activity, percent of control [%] (CDK17): 70.9%
- 21c Remaining activity, percent of control [%] (AKT2): 90.3%
- 21c Remaining activity, percent of control [%] (IRAK1): 101.8%
- 21c Remaining activity, percent of control [%] (EPHA5): 98.4%
- 21c Remaining activity, percent of control [%] (MAP4K5): 78.8%
- 21c Remaining activity, percent of control [%] (CDK6/CycD3): 85.3%
- 21c Remaining activity, percent of control [%] (YES): 81.2%
- 21c Remaining activity, percent of control [%] (DDR2): 103.0%
- 21c Remaining activity, percent of control [%] (TYRO3): 77.8%
- 21c Remaining activity, percent of control [%] (ROS): 109.6%
- 21c Remaining activity, percent of control [%] (GSK3B): 81.4%
- 21c Remaining activity, percent of control [%] (SIK1): 86.3%
- 21c Remaining activity, percent of control [%] (ABL2): 84.2%
- 21c Remaining activity, percent of control [%] (FGFR2): 79.5%
SMILES: O=C1NCCCCCNc2nc(c3ccccc3n2)Nc2cc1[nH]n2 [21c, (Z)-3^1H-2,5,11-triaza-1(4,2)-quinazolina-3(3,5)-pyrazolacycloundecaphan-4-one]
